From patent US8871934B2, “Fluorene compound and pharmaceutical use thereof” (Japan Tobacco Inc., priority 2008, dated 2014) come the findings set out here.

Structures are written as SMILES. Where two headings read alike, the source gives them in different places.

For this assay, the target named is human PDHK2 (hPDHK2) (Homo sapiens (Human), UniProt Q15119). Kind of assay: Inhibitory action of PDHK activity in vitro (kinase reaction, residual PDH activity measured). Type of assay: biochemical.
Setting [1] is: PDHK inhibitory activity, class symbol of IC50.
The mark [2] stands for this setting: read-out: PDHK inhibitory activity IC50.
Setting [3] is: PDHK inhibitory activity (class symbol).
The mark [4] stands for this setting: read-out: PDHK inhibitory activity (class symbol).

Turning to `COC(=O)C1CN(C(=O)c2ccc3c(c2)C(O)(C(F)(F)F)c2ccccc2-3)C1` (centres unmarked) [compound 120], the IC50 is, setting by setting: under setting [1], 100 to 1000 nM; under setting [2], 174 nM.

As to `OC1(C(F)(F)F)c2ccccc2-c2ccc(-c3cccc(F)c3)cc21` (centres unmarked) [compound 129], the IC50 by setting is: under setting [1], 100 to 1000 nM; under setting [2], 864 nM.

Take `OCCn1cc(-c2cc(OCCC34CC5CC(CC(C5)C3)C4)cc3c2-c2ccccc2C3(O)C(F)(F)F)cn1` (centres unmarked) [compound 509]: the IC50 is less than 100 nM under setting [1] and 51 nM under setting [2].

Regarding `CN(CCOc1cc(-c2cnn(C)c2)c2c(c1)C(O)(C(F)(F)F)c1ccccc1-2)C(=O)C(C)(C)CO` (centres unmarked) [compound 489], the IC50 reads like this: under setting [1], less than 100 nM; under setting [2], 22 nM.

For the molecule `O=C(COc1ccc2c(c1)C(O)(C(F)(F)F)c1ccccc1-2)N1CCCCC1` (centres unmarked) [compound 361], the IC50 is 100 to 1000 nM under setting [1] and 436 nM under setting [2].

For the molecule `Cc1noc(-c2cccc3c2-c2ccccc2C3(O)C(F)(F)F)n1` (centres unmarked) [compound 142], the IC50 by setting is: under setting [1], 100 to 1000 nM; under setting [2], 543 nM.

Take `O=C1CCCN1CCOc1cnc2c(c1)C(O)(C(F)(F)F)c1ccccc1-2` (centres unmarked) [compound 430, 1-[2-(5-hydroxy-5-trifluoromethyl-5H-indeno[1,2-b]pyridin-3-yloxy)-ethyl]-pyrrolidin-2-one]: the IC50 is less than 100 nM under setting [1] and 64 nM under setting [2].

For the molecule `N#Cc1cccc(-c2ccc3c(c2)C(O)(C(F)(F)F)c2ccccc2-3)c1` (centres unmarked) [compound 214], the IC50 reads like this: under setting [1], 100 to 1000 nM; under setting [2], 345 nM.

In the case of `CNC(=O)COc1cc(-c2cnn(C)c2)c2c(c1)C(O)(C(F)(F)F)c1ccccc1-2` (centres unmarked) [compound 442], the IC50 reads like this: under setting [1], less than 100 nM; under setting [2], 40 nM.

For `OC1(C(F)(F)F)c2ccccc2-c2c(-c3ncco3)cccc21` (centres unmarked) [compound 131], the IC50 under setting [1] was more than 1000 nM and the IC50 under setting [2] was more than 10000 nM.

As to `CC(=O)N(CCO)CCOc1ccc2c(c1)C(O)(C(F)(F)F)c1ccccc1-2` (centres unmarked) [compound 379], the IC50 runs as follows: under setting [1], 100 to 1000 nM; under setting [2], 351 nM.

`OC1(C(F)(F)F)c2ccccc2-c2c(-c3cncnc3)cc(Cl)cc21` (centres unmarked) [compound 335]: the IC50 under setting [1] is less than 100 nM and the IC50 under setting [2] stood at 80 nM.

Regarding `NC(=O)c1cc(OCCN2CCCOC2=O)cc2c1-c1ccccc1C2(O)C(F)(F)F` (centres unmarked) [compound 612], the IC50 was less than 100 nM under setting [3] and 47 nM under setting [2].

In the case of `Cc1cc(-c2cnn(CC(C)(C)C(=O)O)c2)c2c(c1)C(O)(C(F)(F)F)c1ccccc1-2` (single isomer, unassigned) [compound 575], the IC50 is less than 100 nM under setting [1] and 36 nM under setting [2].

For `C=C(C)c1cccc2c1-c1ccccc1C2(O)C(F)(F)F` (centres unmarked) [compound 138], the IC50 is, setting by setting: under setting [1], more than 1000 nM; under setting [2], more than 10000 nM.

In the case of `N#Cc1ccc2c(c1)C(O)(C(F)(F)F)c1ccccc1-2` (centres unmarked) [compound 671], the IC50 under setting [3] was more than 1000 nM and the IC50 under setting [2] was 1440 nM.

With `O=C1CCCCN1CCCOc1ccc2c(c1)C(O)(C(F)(F)F)c1ccccc1-2` (centres unmarked) [compound 401], the IC50 reads like this: under setting [1], 100 to 1000 nM; under setting [2], 554 nM.

`CN(C)C1CN(C(=O)c2ccc3c(c2)C(O)(C(F)(F)F)c2ccccc2-3)C1` (centres unmarked) [compound 133]: the IC50 reads like this: under setting [1], more than 1000 nM; under setting [2], 2500 nM.

On to `CC(C)(C)n1cc(-c2ccc3c(c2)C(O)(C(F)(F)F)c2cccc(CO)c2-3)cn1` (centres unmarked) [compound 602], for which the IC50 by setting is: under setting [4], more than 1000 nM; under setting [2], more than 1000 nM.

For `CCn1cc(-c2cc(C(N)=O)c3c(c2)C(O)(C(F)(F)F)c2ccccc2-3)cn1` (single isomer, unassigned; (-)) [compound 630, (−)-2-(1-ethyl-1H-pyrazol-4-yl)-9-hydroxy-9-trifluoromethyl-9H-fluorene-4-carboxylic acid amide], the IC50 was less than 100 nM under setting [3] and 20 nM under setting [2].

Turning to `Cc1nn(C)c(C)c1-c1cccc2c1-c1ccccc1C2(O)C(F)(F)F` (centres unmarked) [compound 567], the IC50 (class symbol of IC50, read-out: PDHK inhibitory activity) was more than 1000 nM and the IC50 under setting [2] is more than 1000 nM.

`NC(=O)c1ccccc1-c1ccc2c(c1)C(O)(C(F)(F)F)c1ccccc1-2` (centres unmarked) [compound 182]: the IC50 reads like this: under setting [1], more than 1000 nM; under setting [2], more than 10000 nM.

For `NC(=O)c1cc(OCCO)cc2c1-c1ccccc1C2(O)C(F)(F)F` (centres unmarked) [compound 640], the IC50 was 100 to 1000 nM under setting [3] and 732 nM under setting [2].

Turning to `CC(C)n1cc(-c2cccc3c2-c2ccccc2C3(O)C(F)(F)F)cn1` (centres unmarked) [compound 465], the IC50 is, setting by setting: under setting [1], less than 100 nM; under setting [2], 61 nM.

As for `CCCOc1ccc2c(c1)C(O)(C(F)(F)F)c1ccccc1-2` (centres unmarked) [compound 265], the IC50 by setting is: under setting [1], more than 1000 nM; under setting [2], 1260 nM.

As for `NC(=O)CCn1cc(-c2ccc3c(c2)C(O)(C(F)(F)F)c2cccc(CO)c2-3)cn1` (centres unmarked) [compound 601], the IC50 is, setting by setting: under setting [4], more than 1000 nM; under setting [2], more than 1000 nM.

`CN(C)C(=O)C1CN(C(=O)c2ccc3c(c2)C(O)(C(F)(F)F)c2ccccc2-3)C1` (centres unmarked) [compound 125]: the IC50 is 100 to 1000 nM under setting [1] and 227 nM under setting [2].

Regarding `Cc1cc(-c2cnn(CC(N)=O)c2)c2c(c1)[C@@](O)(C(F)(F)F)c1ccccc1-2` (stereo in doubt) [compound 532], the IC50 is, setting by setting: (PDHK inhibitory activity IC50 (μmol/L)) 16 nM; under setting [1], less than 100 nM.

Turning to `O=C(c1ccc2c(c1)C(O)(C(F)(F)F)c1ccccc1-2)N1CCCCC1` (centres unmarked) [compound 52], the IC50 is more than 1000 nM under setting [1] and 4010 nM under setting [2].

With `NC(=O)Cc1ccc2c(c1)C(O)(C(F)(F)F)c1ccccc1-2` (centres unmarked) [compound 403], the IC50 under setting [1] was more than 1000 nM and the IC50 under setting [2] was more than 10000 nM.

Take `OC1(C(F)(F)F)c2ccccc2-c2ccc(OCc3ccccc3)cc21` (centres unmarked) [compound 262]: the IC50 under setting [1] is more than 1000 nM and the IC50 under setting [2] was 1360 nM.

As to `Cn1cc(-c2cc(OCCCc3nnn[nH]3)cc3c2-c2ccccc2C3(O)C(F)(F)F)cn1` (single isomer, unassigned) [compound 573], the IC50 runs as follows: under setting [1], less than 100 nM; under setting [2], 18 nM.

As for `COc1ccc2c(c1)-c1ccccc1C2(O)C(F)(F)F` (centres unmarked) [compound 47], the IC50 reads like this: under setting [1], more than 1000 nM; under setting [2], 4910 nM.

As to `Cc1ccncc1-c1cccc2c1-c1ccccc1C2(O)C(F)(F)F` (centres unmarked) [compound 204], the IC50 runs as follows: under setting [1], more than 1000 nM; under setting [2], more than 10000 nM.

For the molecule `NC(=O)COc1cc(-c2cncnc2)c2c(c1)C(O)(C(F)(F)F)c1ccccc1-2` (centres unmarked) [compound 363], the IC50 is less than 100 nM under setting [1] and 47 nM under setting [2].

Consider `CNC(=O)C1CCN(C(=O)c2ccc3c(c2)C(O)(C(F)(F)F)c2ccccc2-3)C1` (centres unmarked) [compound 227], for which the IC50 is more than 1000 nM under setting [1] and 1050 nM under setting [2].

In the case of `CC(CCOc1cc(-c2cnn(C)c2)c2c(c1)C(O)(C(F)(F)F)c1ccccc1-2)C(=O)O` (single isomer, unassigned) [compound 577], the IC50 is less than 100 nM under setting [1] and 23 nM under setting [2].

For the molecule `Oc1ccc(-c2ccc3c(c2)C(O)(C(F)(F)F)c2ccccc2-3)cc1` (centres unmarked) [compound 205], the IC50 is 100 to 1000 nM under setting [1] and 707 nM under setting [2].

Consider `CC(C)n1cc(-c2cc(C(N)=O)c3c(c2)C(O)(C(F)(F)F)c2ccccc2-3)cn1` (centres unmarked) [compound 528], for which the IC50 under setting [1] was less than 100 nM and the IC50 under setting [2] was 49 nM.

With `Cn1cc(-c2cc(-c3cnn(C)c3)c3c(c2)C(O)(C(F)(F)F)c2ccccc2-3)cn1` (centres unmarked) [compound 579], the IC50 runs as follows: under setting [1], less than 100 nM; under setting [2], 19 nM.

Take `O=C(c1cccc2c1-c1ccccc1C2(O)C(F)(F)F)C1CC1` (centres unmarked) [compound 83]: the IC50 under setting [1] was more than 1000 nM and the IC50 under setting [2] came out at 1140 nM.

Take `O=C(O)CCCOc1cc(Br)c2c(c1)C(O)(C(F)(F)F)c1ccccc1-2` (centres unmarked) [compound 404]: the IC50 is 100 to 1000 nM under setting [1] and 195 nM under setting [2].

Regarding `Cn1cc(-c2cc(OCCN3CCCC3=O)cc3c2-c2ccccc2C3(O)C(F)(F)F)cn1` (centres unmarked) [compound 412], the IC50 by setting is: under setting [1], less than 100 nM; under setting [2], 22 nM.

`CCc1cc(-c2cnn(C(CO)CO)c2)c2c(c1)C(O)(C(F)(F)F)c1ccccc1-2` (centres unmarked) [compound 653]: the IC50 was less than 100 nM under setting [3] and 37 nM under setting [2].

Take `O=C(O)C1CCN1C(=O)c1ccc2c(c1)C(O)(C(F)(F)F)c1ccccc1-2` (centres unmarked) [compound 314]: the IC50 is more than 1000 nM under setting [1] and more than 10000 nM under setting [2].

As for `NC(=O)c1cc(-c2cnn(CC3CCCCC3)c2)cc2c1-c1ccccc1C2(O)C(F)(F)F` (centres unmarked) [compound 662], the IC50 by setting is: under setting [3], less than 100 nM; under setting [2], 34 nM.

Turning to `CCc1cccc2c1-c1ccccc1C2(O)C(F)(F)F` (centres unmarked) [compound 25], the IC50 is, setting by setting: under setting [1], more than 1000 nM; under setting [2], 30900 nM.

Take `CNC(=O)C1CN(C(=O)c2ccc3c(c2)C(O)(C(F)(F)F)c2ccccc2-3)C1` (centres unmarked) [compound 124]: the IC50 by setting is: under setting [1], 100 to 1000 nM; under setting [2], 736 nM.

`Cc1cc(C)c2c(c1)C(O)(C(F)(F)F)c1ccccc1-2` (centres unmarked) [compound 18]: the IC50 reads like this: under setting [1], 100 to 1000 nM; under setting [2], 457 nM.

`O=C(O)c1cccc(-c2ccc3c(c2)C(O)(C(F)(F)F)c2ccccc2-3)c1` (centres unmarked) [compound 155]: the IC50 by setting is: under setting [1], 100 to 1000 nM; under setting [2], 805 nM.

`OCc1ccccc1-c1ccc2c(c1)C(O)(C(F)(F)F)c1ccccc1-2` (centres unmarked) [compound 189]: the IC50 by setting is: under setting [1], more than 1000 nM; under setting [2], 6000 nM.

For `OC1(C(F)(F)F)c2ccccc2-c2c(-c3ccccc3)cccc21` (centres unmarked) [compound 126], the IC50 reads like this: under setting [1], more than 1000 nM; under setting [2], more than 10000 nM.

On to `CCc1ccc2c(c1)C(O)(C(F)(F)F)c1ccccc1-2` (centres unmarked) [compound 39], for which the IC50 under setting [1] was more than 1000 nM and the IC50 under setting [2] came out at 4520 nM.

Turning to `CC(C)(C)n1cc(-c2cc(CO)c3c(c2)C(O)(C(F)(F)F)c2ccccc2-3)cn1` (centres unmarked) [compound 638], the IC50 by setting is: under setting [3], 100 to 1000 nM; under setting [2], 127 nM.

As to `CCOc1cccc2c1-c1ccccc1C2(O)C(F)(F)F` (centres unmarked) [compound 66], the IC50 under setting [1] was more than 1000 nM and the IC50 under setting [2] was determined as 66300 nM.
